Earlier results, collected in publication doi:10.1101/2024.08.20.608791v1 (bioRxiv, 2024).

Key:
[1] = <LOQ
[2] = for in vitro permeability (in words): assay not specified
[3] = oral bioavailability in animals, species not stated
[4] = for observed F: oral bioavailability, not marked as animal data, source not stated per compound
[5] = humans; for estimated / proposed fa: oral, compounds without fa values in man, estimate or proposal only
[6] = for log P: as reported in Table 1 and text, source and method not stated

## quinupristin
[1]
  solubility in water (in words): practically insoluble in water

## CC(=O)O[C@H]1C(=O)[C@@]2(C)[C@H]([C@H](OC(=O)c3ccccc3)[C@]34OC(=O)O[C@H]3[C@H](OC(=O)[C@H](O)[C@H](CC(C)C)NC(=O)OC(C)(C)C)C(C)=C1C4(C)C)[C@]1(OC(C)=O)CO[C@@H]1C[C@@H]2O [ortataxel]
[2]
  in vitro permeability (in words): moderate in vitro permeability
[3]
  observed F in animals: 25%

## CO[C@H]1C[C@@H]2CC[C@@H](C)[C@@](O)(O2)C(=O)C(=O)N2CCCC[C@H]2C(=O)O[C@H]([C@H](C)C[C@@H]2CC[C@@H](OP(C)(C)=O)[C@H](OC)C2)CC(=O)[C@H](C)/C=C(\C)[C@@H](O)[C@@H](OC)C(=O)[C@H](C)C[C@H](C)/C=C/C=C/C=C/1C [ridaforolimus]
[1]
  solubility in water (in words): practically insoluble in water

## desmopressin
[4]
  observed F: 0.08-0.16%

## bivalirudin
[1]
  solubility in water (in words): practically insoluble in water

## CO[C@H]1/C=C/O[C@@]2(C)Oc3c(C)c(O)c4c(O)c(c5c(nc6cc(C)ccn65)c4c3C2=O)NC(=O)/C(C)=C\C=C\[C@H](C)[C@H](O)[C@@H](C)[C@@H](O)[C@@H](C)[C@H](OC(C)=O)[C@@H]1C [rifaximin]
[1]
  solubility in water (in words): practically insoluble in water

## COC[C@H]1C[C@@H](c2ncc(-c3ccc4c(c3)COc3cc5c(ccc6nc([C@@H]7CC[C@H](C)N7C(=O)[C@@H](NC(=O)OC)C(C)C)[nH]c65)cc3-4)[nH]2)N(C(=O)[C@H](NC(=O)OC)c2ccccc2)C1 [velpatasvir]
[1]
  solubility in water (in words): practically insoluble in water
[5]
  estimated / proposed fa: 25-30%

## voclosporin
[1]
  solubility in water (in words): practically insoluble in water

## CC[C@@H]([C@H](C)O)n1ncn(-c2ccc(N3CCN(c4ccc(OC[C@@H]5CO[C@@](Cn6cncn6)(c6ccc(F)cc6F)C5)cc4)CC3)cc2)c1=O [posaconazole]
[2]
  in vitro permeability (in words): high in vitro permeability
[3]
  observed F in animals: 52%
[1]
  solubility in water (in words): practically insoluble in water
[6]; calculated
  calculated log P: 5.4
[6]; experimental
  experimentally determined log P: 2.4

## CO[C@H]1C[C@H](O[C@H]2CC[C@]3(C=O)[C@H]4CC[C@]5(C)[C@@H](C6=CC(=O)OC6)CC[C@]5(O)[C@@H]4CC[C@]3(O)C2)O[C@H](C)[C@H]1O[C@@H]1O[C@H](CO[C@@H]2O[C@H](CO)[C@@H](O)[C@H](O)[C@H]2O)[C@@H](O)[C@H](O)[C@H]1O [k-strophanthoside]
[5]
  fraction absorbed (fa) of approved oral drugs: 16%

## CC[C@@H]1C[C@]1(NC(=O)[C@@H]1C[C@@H](Oc2cc(-c3csc(NC(C)C)n3)nc3c(Cl)c(OCCN4CCOCC4)ccc23)CN1C(=O)[C@@H](NC(=O)O[C@@H]1C[C@@H]2C[C@@H]2C1)C(C)(C)C)C(=O)O [vedroprevir]
[2]
  in vitro permeability (in words): low in vitro permeability
[3]
  observed F in animals: 49-123%
[1]
  solubility in water (in words): practically insoluble in water

## anidulafungin
[4]; species not stated, quoted as comparison for micafungin
  F: 2-7%
[1]
  solubility in water (in words): practically insoluble in water

## COC(=O)N[C@H](C(=O)N1CCC[C@H]1C(=O)Nc1ccc([C@@H]2CC[C@@H](c3ccc(NC(=O)[C@@H]4CCCN4C(=O)[C@@H](NC(=O)OC)C(C)C)cc3)N2c2ccc(C(C)(C)C)cc2)cc1)C(C)C [Ombitasvir]
[2]; not able to quantify in an in vitro permeability assay (≤LOQ)
  in vitro permeability, not able to quantify: ≤ LOQ
[6]
  log P: 5.7

## CC1(C)CCC(CN2CCN(c3ccc(C(=O)NS(=O)(=O)c4ccc(NCC5CCOCC5)c([N+](=O)[O-])c4)c(Oc4cnc5[nH]ccc5c4)c3)CC2)=C(c2ccc(Cl)cc2)C1 [Venetoclax]
[1]
  solubility in water (in words): practically insoluble in water
[6]
  log P: 8.2
[5]
  fraction absorbed (fa) of approved oral drugs: > 65%

## C[C@H]1O[C@@H](O[C@H]2[C@@H](O)C[C@H](O[C@H]3[C@@H](O)C[C@H](O[C@H]4CC[C@@]5(C)[C@H](CC[C@@H]6[C@@H]5C[C@@H](O)[C@]5(C)[C@@H](C7=CC(=O)OC7)CC[C@]65O)C4)O[C@@H]3C)O[C@@H]2C)C[C@H](O)[C@@H]1O [Digoxin]
Caco-2; Caco-2 experiments
  Caco-2 permeability (in words): moderate permeability
Caco-2; underprediction of human fa from Caco-2
  fa predicted using the Caco-2 assay: ~50%

## C=C[C@@H]1C[C@]1(NC(=O)[C@@H]1C[C@@H](Oc2cc(-c3csc(NC(=O)C(C)C)n3)nc3c(Br)c(OC)ccc23)CN1C(=O)[C@@H](NC(=O)OC1CCCC1)C(C)(C)C)C(=O)O [faldaprevir]
[3]
  observed F in animals: 26-39%

## semaglutide
[4]
  observed F: 0.8%

## CC1(C)S[C@@H]2[C@H](NC(=O)[C@H](NC(=O)N3CCN(S(C)(=O)=O)C3=O)c3ccccc3)C(=O)N2[C@H]1C(=O)O [mezlocillin]
[5]
  estimated / proposed fa: zero

## CCc1c(Cl)c(O)c(Cl)c(O)c1C(=O)O[C@H]1[C@H](O)[C@H](OC)[C@H](OC/C2=C\C=C\C[C@H](O)/C(C)=C/[C@H](CC)[C@@H](O[C@@H]3OC(C)(C)[C@@H](OC(=O)C(C)C)[C@H](O)[C@@H]3O)/C(C)=C/C(C)=C/C[C@@H]([C@@H](C)O)OC2=O)O[C@@H]1C [Fidaxomicin]
[6]
  log P: 6.4

## COC(=O)N[C@H](C(=O)N1CCC[C@H]1c1nc(-c2ccc3c(c2)O[C@@H](c2ccccc2)n2c-3cc3cc(-c4c[nH]c([C@@H]5CCCN5C(=O)[C@@H](NC(=O)OC)C(C)C)n4)ccc32)c[nH]1)C(C)C [elbasvir]
[1]
  solubility in water (in words): practically insoluble in water

## C=CC[C@@H]1/C=C(\C)C[C@H](C)C[C@H](OC)[C@H]2O[C@@](O)(C(=O)C(=O)N3CCCC[C@H]3C(=O)O[C@H](/C(C)=C/[C@@H]3CC[C@@H](O)[C@H](OC)C3)[C@H](C)[C@@H](O)CC1=O)[C@H](C)C[C@@H]2OC [tacrolimus]
[5]
  estimated / proposed fa: > 15%

## CO[C@H]1C[C@@H]2CC[C@@H](C)[C@@](O)(O2)C(=O)C(=O)N2CCCC[C@H]2C(=O)O[C@H]([C@H](C)C[C@@H]2CC[C@@H](OCCO)[C@H](OC)C2)CC(=O)[C@H](C)/C=C(\C)[C@@H](O)[C@@H](OC)C(=O)[C@H](C)C[C@H](C)/C=C/C=C/C=C/1C [everolimus]
[1]
  solubility in water (in words): practically insoluble in water

## COC(=O)N[C@H](C(=O)N1CCC[C@H]1c1nc(-c2ccc(-c3ccc(-c4c[nH]c([C@@H]5CCCN5C(=O)[C@@H](NC(=O)OC)C(C)C)n4)cc3)cc2)c[nH]1)C(C)C [Daclatasvir]
[6]
  log P: 5.1

## Teicoplanin A2 1
[6]
  log P: -2.3

## CC[C@H]1OC(=O)[C@H](C)[C@@H](O[C@H]2C[C@@](C)(OC)[C@@H](O)[C@H](C)O2)[C@H](C)[C@@H](O[C@@H]2O[C@H](C)C[C@H](N(C)C)[C@H]2O)[C@](C)(O)C[C@@H](C)CN(C)[C@H](C)[C@@H](O)[C@]1(C)O [Azithromycin]
[1]
  solubility in water (in words): practically insoluble in water

## CC(C)c1nc(CN(C)C(=O)N[C@H](C(=O)N[C@@H](Cc2ccccc2)C[C@H](O)[C@H](Cc2ccccc2)NC(=O)OCc2cncs2)C(C)C)cs1 [Ritonavir]
[6]
  log P: 5.2

## CC1(C)CC[C@]2(NC(=O)C(C)(F)F)CC[C@]3(C)[C@H](C(=O)C=C4[C@@]5(C)C=C(C#N)C(=O)C(C)(C)[C@@H]5CC[C@]43C)[C@@H]2C1 [omaveloxolone]
[4]
  observed F: 8%

## CC(C)c1nc(CN(C)C(=O)N[C@@H](CCN2CCOCC2)C(=O)N[C@H](CC[C@H](Cc2ccccc2)NC(=O)OCc2cncs2)Cc2ccccc2)cs1 [cobicistat]
[3]
  observed F in animals: 11-33%

## cholecystokinin octapeptide
[4]
  observed F: 0.2%
